Experimental data taken from patent US20200369728A1, “PEPTIDOMIMETIC MACROCYCLES AND USES THEREOF” (Aileron Therapeutics, Inc., priority 2015, published 2020).
Bridge positions count the residues as written; N and C are the ends. Square brackets hold non-standard residues; d marks the D form. Peptide text beside a SMILES is read from it. Phe(4-COOH) = N[C@@H](Cc1ccc(C(=O)O)cc1)C(=O)O; R8 = C=CCCCCCC[C@@](C)(N)C(=O)O; Cba = N[C@@H](CC1CCC1)C(=O)O; S5 = C=CCCC[C@](C)(N)C(=O)O; Nle = CCCC[C@H](N)C(=O)O

Key:
SJSA-1 cells = assay: Cell lysis by peptidomimetic macrocycles (LDH release); type: cell-based; settings: SJSA-1, 1 h
Outline: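 SJSA-1 cells plated the day before, switched to RPMI with 1% FBS, then exposed 1 h at 37 °C to macrocycle at final 50 μM to 6.25 μM in 0.5% DMSO. LDH released into the supernatant was measured by kit. Controls: 0.5% DMSO (non-lytic), 10 μM melittin and 1% Triton X-100 (lytic).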

[1] = Circular dichroism (CD) analysis of alpha-helicity; type: physicochemical; settings: for Molar Ellipticity TFE − Molar Ellipticity Benign / Molar Ellipticity 50% TFE (222 in 50% TFE) / Molar Ellipticity Benign (222 in 0% TFE): 222 nm; for Molar Ellipticity 50% TFE (222 in 50% TFE): CD buffer with 50% TFE; for Molar Ellipticity 50% TFE (222 in 50% TFE) / Molar Ellipticity Benign (222 in 0% TFE): 0.05 mg/ml, 4° C.; for Molar Ellipticity Benign (222 in 0% TFE): benign CD buffer (20 mM phosphoric acid, pH 2); for % Helix benign compared to 50% TFE parent (CD): benign buffer
Protocol: Peptide solutions were analyzed by CD spectroscopy using a Jasco J-815 spectropolarimeter (Jasco Inc., Easton, Md.) with the Jasco Spectra Manager Ver. 2 system software. A Peltier temperature controller was used to maintain temperature control of the optical cell. Results are expressed as mean molar ellipticity (deg cm^2 dmol^−1) as calculated from the equation [0]=θobs·MRW/10*l*c where θobs is the observed ellipticity in millidegrees, MRW is the mean residue weight of the peptide (peptide molecular weight/number of residues), 1 is the optical path length of the cell in centimeters, and c is the peptide concentration in mg/ml. Peptide concentrations were determined by amino acid analysis. Stock solutions of peptides were prepared in benign CD buffer (20 mM phosphoric acid, pH 2). The stocks were used to prepare peptide solutions of 0.05 mg/ml in either benign CD buffer or CD buffer with 50% trifluoroethanol (TFE) for analyses in a 10 mm pathlength cell. Variable wavelength measurements of peptide solutions were scanned at 4° C. from 195 to 250 nm, in 0.2 nm increments, and a scan rate 50 nm per minute. The average of six scans was reported.

Caspase 3 = Caspase 3 detection assay in SJSA1 cells; type: cell-based; settings: SJSA1, 48 h, Caspase 3 activation over DMSO-treated cells
RKO = assay: Cell viability assay (MTT), RKO; settings: read-out: RKO EC50 (72 h)

| Structure (SMILES) | 6.25 μM % Lysed cells (1 h LDH) (SJSA-1 cells) [%] | 25 μM % Lysed cells (1 h LDH) (SJSA-1 cells) [%] | 50 μM % Lysed cells (1 h LDH) (SJSA-1 cells) [%] | % Helix 50% TFE compared to 50% TFE parent (CD) [1] [%] | Molar Ellipticity TFE − Molar Ellipticity Benign [1] [deg cm^2 dmol^−1] | Molar Ellipticity 50% TFE (222 in 50% TFE) [1] [deg cm^2 dmol^−1] | Molar Ellipticity Benign (222 in 0% TFE) [1] [deg cm^2 dmol^−1] | % Helix benign compared to 50% TFE parent (CD) [1] [%] | caspase 0.3 μM (Caspase 3) | caspase 3 μM (Caspase 3) | caspase 10 μM (Caspase 3) | caspase 30 μM (Caspase 3) | EC50 (RKO) [µM] | caspase 1 μM (Caspase 3) |
| --- | --- | --- | --- | --- | --- | --- | --- | --- | --- | --- | --- | --- | --- | --- |
| CC(=O)N[C@@H](CC(C)C)C(=O)N[C@H](C(=O)N[C@@H](Cc1ccccc1)C(=O)N[C@]1(C)CCCCCCC=CCCC[C@@](C)(C(=O)N[C@@H](C)C(=O)N[C@@H](C)C(=O)N[C@@H](C)C(=O)N[C@H](C)C(N)=O)NC(=O)[C@H](CC(C)C)NC(=O)[C@H](CCC(N)=O)NC(=O)[C@H](C)NC(=O)[C@H](Cc2c[nH]c3ccccc23)NC(=O)[C@H](Cc2ccc(O)cc2)NC(=O)[C@H](C)NC1=O)[C@@H](C)O (single isomer, unassigned) [compound 230] | 0.5 | 0 | 3 | 123.9 | −17760.8 | −17974 | −213.2 | 1.5 | 1 | 2 | 3 | 11 |  |  |
| CCCC[C@H](NC(=O)[C@H](CCC(N)=O)NC(=O)[C@H](CCC(N)=O)NC(=O)[C@]1(C)CCCC=CCCCCCC[C@@](C)(NC(=O)[C@H](Cc2ccccc2)NC(C)=O)C(=O)N[C@@H](C)C(=O)N[C@@H](Cc2ccc(O)cc2)C(=O)N[C@@H](Cc2c[nH]c3ccccc23)C(=O)N[C@@H]([C@@H](C)O)C(=O)N[C@@H](C)C(=O)N[C@@H](CC(C)C)C(=O)N1)C(=O)N[C@@H](C(N)=O)C(C)C [compound 41] (Ac-F[R8]AYWTAL[S5]QQ[Nle][dV]-NH2; staple 2-9) |  |  |  | 136 |  | −21319.4 | −909 | 5.8 |  |  |  |  |  |  |
| CC(=O)N[C@@H](CC(C)C)C(=O)N[C@H](C(=O)N[C@@H](Cc1ccccc1)C(=O)N[C@]1(C)CCCCCCC=CCCC[C@@](C)(C(=O)N[C@@H](Cc2c[nH]cn2)C(=O)N[C@@H](Cc2c[nH]cn2)C(=O)N[C@@H](CC(C)C)C(=O)N[C@H](C)C(N)=O)NC(=O)[C@H](CC(C)C)NC(=O)[C@H](CCC(N)=O)NC(=O)[C@H](C)NC(=O)[C@H](Cc2c[nH]c3ccccc23)NC(=O)[C@H](Cc2ccc(O)cc2)NC(=O)[C@H](C)NC1=O)[C@@H](C)O [compound 43] (Ac-LTF[R8]AYWAQL[S5]HHL[dA]-NH2; staple 4-11) | 0 | −1 | −1 | 116.4 | 2912.9 | −18247.4 | −15334.5 | 97.8 |  |  |  |  |  |  |
| CC(=O)N[C@@H](CC(C)C)C(=O)N[C@H](C(=O)N[C@@H](Cc1ccccc1)C(=O)N[C@]1(C)CCCCCCC=CCCC[C@@](C)(C(=O)N[C@@H](CO)C(=O)N[C@@H](C)C(=O)N[C@@H](C)C(N)=O)NC(=O)[C@H](CC(C)C)NC(=O)[C@H](C)NC(=O)[C@H](C(C)C)NC(=O)[C@H](Cc2c[nH]c3ccccc23)NC(=O)[C@H](Cc2ccc(O)cc2)NC(=O)[C@H](C)NC1=O)[C@@H](C)O [compound 196] (Ac-LTF[R8]AYWVAL[S5]SAA-NH2; staple 4-11) | 0 | 0 | 3 |  |  |  |  |  | 1 | 4 | 33 | 26 | < 5 |  |
| CC(=O)N[C@@H](CC(C)C)C(=O)N[C@H](C(=O)N[C@@H](Cc1ccccc1)C(=O)N[C@]1(C)CCCCCCC=CCCC[C@@](C)(C(=O)N[C@@H](C)C(=O)N[C@@H](C)C(=O)N[C@@H](C)C(=O)N[C@@H](C)C(=O)N[C@H](C)C(N)=O)NC(=O)[C@H](CC(C)C)NC(=O)[C@H](CCC(N)=O)NC(=O)[C@H](C)NC(=O)[C@H](Cc2c[nH]c3ccccc23)NC(=O)[C@H](Cc2ccc(O)cc2)NC(=O)[C@H](C)NC1=O)[C@@H](C)O [compound 233] | 2.5 | 3.5 | 6 | 131.2 | −18554.7 | −19032.6 | −477.9 | 3.3 | 6 | 17 | 22 | 23 |  | 8 |
| CC[C@H](C)[C@H](NC(=O)[C@H](C)NC(=O)[C@H](C)NC(=O)[C@]1(C)CCC/C=C/CCCCCC[C@@](C)(NC(=O)[C@H](Cc2ccccc2)NC(=O)[C@@H](NC(=O)[C@H](CC(C)C)NC(C)=O)[C@@H](C)O)C(=O)N[C@@H](CCC(=O)O)C(=O)N[C@@H](Cc2ccc(C(=O)O)cc2)C(=O)N[C@@H](Cc2c[nH]c3ccccc23)C(=O)N[C@@H](C)C(=O)N[C@@H](CCC(N)=O)C(=O)N[C@@H](CC2CCC2)C(=O)N1)C(=O)N[C@H](C)C(N)=O [compound 249] (Ac-LTF[R8]E[Phe(4-COOH)]WAQ[Cba][S5]AAI[dA]-NH2; staple (E) 4-11) | 0 | 0 | 0 |  |  |  |  |  | 2 | 5 | 11 | 23 | < 5 |  |
| CC(=O)N[C@@H](CC(C)C)C(=O)N[C@H](C(=O)N[C@@H](Cc1ccccc1)C(=O)N[C@]1(C)CCCCCC/C=C/CCC[C@@](C)(C(=O)N[C@@H](C)C(=O)N[C@@H](C)C(=O)N[C@@H](C)C(=O)N[C@@H](C)C(=O)N[C@@H](C)C(=O)N[C@H](C)C(N)=O)NC(=O)[C@H](CC2CCC2)NC(=O)[C@H](CCC(N)=O)NC(=O)[C@H](C)NC(=O)[C@H](Cc2c[nH]c3ccccc23)NC(=O)[C@H](Cc2ccc(C(=O)O)cc2)NC(=O)[C@H](CCC(=O)O)NC1=O)[C@@H](C)O [compound 349] | 0 | 0 | 0 |  |  |  |  |  | 1 | 11 | 16 | 24 | 5 to 15 | 8 |
| CC(=O)N[C@@H](CC(C)C)C(=O)N[C@H](C(=O)N[C@@H](Cc1ccccc1)C(=O)N[C@]1(C)CCCCCC/C=C/CCC[C@@](C)(C(=O)N[C@@H](C)C(=O)N[C@@H](C)C(=O)N[C@@H](C)C(=O)N[C@@H](C)C(=O)N[C@@H](C)C(=O)N[C@H](C)C(N)=O)NC(=O)[C@H](CC2CCC2)NC(=O)[C@H](CCC(N)=O)NC(=O)[C@H](CO)NC(=O)[C@H](Cc2c[nH]c3ccccc23)NC(=O)[C@H](Cc2ccc(O)cc2)NC(=O)[C@H](CCC(=O)O)NC1=O)[C@@H](C)O [compound 351] | 0 | 0 | 0 |  |  |  |  |  | 3 | 13 | 15 | 24 | 5 to 15 | 9 |
